Reference: patent US8822688B2, “Imidazo[1,2-a]pyridine derivative” (Astellas Pharma Inc., priority 2010, dated 2014)
Counter-ions that a name gives are not always drawn.

What follows are compounds tested against T1, human PDE4B2 (Homo sapiens, UniProt Q07343) (assay: Human PDE4B activity inhibition test (SPA, [3H]-cAMP)). Settings: FLAG-tagged human PDE4B2 purified from COS-1 cells; 30 min at room temperature; read-out: IC50 (nM), human PDE4B inhibitory activity.
T1 construct: FLAG; made in house; host or cells: COS-1 cells (plasmid amplified in E. coli)
T1 sequence (Q07343 1-564 isoform Q07343-2): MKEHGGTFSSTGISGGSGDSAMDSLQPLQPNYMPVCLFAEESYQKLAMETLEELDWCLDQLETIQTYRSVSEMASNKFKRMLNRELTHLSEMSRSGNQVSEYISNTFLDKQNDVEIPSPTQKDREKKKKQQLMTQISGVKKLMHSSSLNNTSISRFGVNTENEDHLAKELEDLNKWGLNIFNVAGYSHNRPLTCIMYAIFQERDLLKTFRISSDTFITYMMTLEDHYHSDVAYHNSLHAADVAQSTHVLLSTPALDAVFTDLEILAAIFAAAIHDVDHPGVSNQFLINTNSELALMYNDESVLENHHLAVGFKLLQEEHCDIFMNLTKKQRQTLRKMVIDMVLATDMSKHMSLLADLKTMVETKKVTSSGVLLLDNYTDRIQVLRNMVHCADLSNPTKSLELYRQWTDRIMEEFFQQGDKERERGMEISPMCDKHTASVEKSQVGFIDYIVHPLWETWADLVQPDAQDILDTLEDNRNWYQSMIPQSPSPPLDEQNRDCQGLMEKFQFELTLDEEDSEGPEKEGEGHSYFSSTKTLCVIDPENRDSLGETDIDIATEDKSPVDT
Type: biochemical
Description: Test Method 1: Human PDE4B Inhibitory Activity
(1) Purification of Human PDE4B Enzyme
Plasmid DNA encoding FLAG-tagged human PDE4B2 was prepared and transfected into E. coli, and mass cultivation was performed. After extracting and purifying the plasmid DNA from the E. coli, the resultant was transfected into COS-1 cells and cultured. After the cells were homogenized, the expressed enzyme was purified using a FLAG peptide affinity column.
(2) Human PDE4B Activity Inhibition Test
1 μl/well of DMSO solution in which various concentrations of test compounds were dissolved and 74 μl/well of the purified enzyme diluted with a buffer were added to 96-well plates, and incubated at room temperature for 10 minutes. A buffer including 40 nM [^3H]-cAMP (Amersham, TRK559) and 4 μM cAMP were added at 25 μl/well and reacted for 30 minutes at room temperature. A suspension (18 mM ZnSO4, 5 mM IBMX, distilled water) of polylysin coated yttrium silicate SPA beads (Amersham, RPNQ0010) was added at 50 μl/well, and the reaction was stopped. After standing for 20 minutes at room temperature, the radioactivity was measured using a top count instrument and set as an index of enzyme activity. For evaluating the enzyme inhibitory activity of the test compound in each experiment, a value of IC50 was calculated with the radiation activity of the well of adding the vehicle (DMSO) and the enzyme as 0% inhibition and the radiation activity of the well of adding only the vehicle and not adding the enzyme as 100% inhibition.

Compound | IC50 [nM]
CC1(C)CCc2c(c(N3CCC(C)(CO)CC3)n3c(nc4ccccc43)c2C(N)=O)C1 [Example 4] | 86
COC1(CO)CCN(c2c3c(c(C(N)=O)c4nc5ccccc5n24)C2CCC3C2)CC1 (centres unmarked) [Example 14] | 3.3
COC1(CO)CCN(c2c3c(c(C(N)=O)c4nc5c(n24)CCCC5)CCC3)CC1 [Example 15] | 26
NC(=O)c1c2c(c(N3CCC4(CC3)CNC4)n3c1nc1ccccc13)CCC2 [Example 25, 11-(2,7-diazaspiro[3.5]non-7-yl)-2,3-dihydro-1H-cyclopenta[4,5]pyrido[1,2-a]benzimidazole-4-carboxamide dihydrochloride] | 8.2
NC(=O)c1c2c(c(N3CCC4(CCNC4)CC3)n3c1nc1ccccc13)CCC2 [Example 26] | 13
COC1(CO)CCN(c2c3c(c(C(N)=O)c4nc5ccccc5n24)CC(C)(C)C3)CC1 [Example 12] | 2.7
COC1(CO)CCN(c2c3c(c(C(N)=O)c4nc5ccccc5n24)CCSC3)CC1 [Example 16] | 15

The remaining lines, values ahead:

IC50 [nM] | Compound
8 | COC1(CO)CCN(c2c3c(c(C(N)=O)c4nc5ccccc5n24)CCC3)CC1 [Example 8]
18 | CC1(CN)CCN(c2c3c(c(C(N)=O)c4nc5ccccc5n24)CCC3)CC1 [Example 18, 11-[4-(aminomethyl)-4-methylpiperidin-1-yl]-2,3-dihydro-1H-cyclopenta[4,5]pyrido[1,2-a]benzimidazole-4-carboxamide dihydrochloride]
42 | NC(=O)c1c2c(c(N3CCC4(CO)CC4C3)n3c1nc1ccccc13)CCC2 (centres unmarked) [Example 23, 11-[6-(hydroxymethyl)-3-azabicyclo[4.1.0]hept-3-yl]-2,3-dihydro-1H-cyclopenta[4,5]pyrido[1,2-a]benzimidazole-4-carboxamide hydrochloride]
13 | CC1(CO)CCN(c2c3c(c(C(N)=O)c4nc5ccccc5n24)CCC3)CC1 [Example 2]
11.8 | CO[C@@]1(CO)CCN(c2c3c(c(C(N)=O)c4nc5ccccc5n24)CC(C)(C)C3)C[C@@H]1F (relative stereo) [Example 22, rel-11-[(3R,4S)-3-fluoro-4-(hydroxymethyl)-4-methoxypiperidin-1-yl]-2,2-dimethyl-2,3-dihydro-1H-cyclopenta[4,5]pyrido[1,2-a]benzimidazole-4-carboxamide]
14 | N#CC1(CO)CCN(c2c3c(c(C(N)=O)c4nc5ccccc5n24)CCC3)CC1 [Example 5]
48 | CO[C@]1(CO)CCN(c2c3c(c(C(N)=O)c4nc5ccccc5n24)CCC3)C[C@H]1F (relative stereo) [Example 10]
